Results from PMC9569529, “Safe and Efficient Sigma1 Ligand: A Potential Drug Candidate for Multiple Sclerosis” (International Journal of Molecular Sciences, 2022).
In brackets after ≈: the same amount, converted by molar mass. Read-outs that look alike come from different tables or passages of the source.

Columns and labels:
[1] = Microsomal stability in mouse liver microsomes; assay type: in vitro ADME; conditions: mLM; for Compound Remaining (1 h, %): 10 µM; for half-life at 10 µM / microsomal CLint at 10 µM: mouse, liver microsomes
Experimental: (§1) Metabolic stability analysis (mouse and human liver microsomes) was performed by Eurofins Cerep (Poitiers, France) at 10 µM as described in [55]. Results were obtained at 15, 30, 45 and 60 min. Results were expressed as percent of the parent compound remaining, and calculated by comparing the peak area of the compound at the time point relative to that at time 0. The half-life (t1/2) and the apparent intrinsic clearance (CLint) were evaluated.

[2] = Microsomal stability in human liver microsomes; assay type: in vitro ADME; conditions: hLM; for half-life at 10 µM / microsomal CLint at 10 µM: human, liver microsomes
Experimental: as §1
Metabolite identification was performed by HPLC-High Resolution mass spectrometry (MS). Chromatographic separation was performed on an Accela UPLC system (Thermo Fisher Scientific Inc. Waltham, MA, USA) equipped with an ACE 3 C18-AR column (100 × 2.1 mm, particle size 3 μm; AIT, Cormeilles-en-Parisis, France) preceded by a guard column (same stationary phase). The elution was performed with a gradient mode using water (solvent A) and ACN (solvent B), all acidified with 0.1% formic acid. The linear gradient elution program was as follows: 10% of B for 2 min; linear increase from 10 to 90% of solvent B for 20 min; 1 min at 90% of B; and 2 min of re-equilibration with 10% of B for a total run of 25 min. The LC flow rate was 400 µL/min and the injection volume was 10 μL. The column oven temperature was 30 °C and the sample tray temperature 4 °C. Eluted compounds were detected in positive mode by a full mass scan (m/z 200 to 500) using a Orbitrap Mass Spectrometer Exactive (Thermo Fisher Scientific Inc. Waltham, MA, USA) equipped with a heated electrospray ionization source (HESI-II). Instrument parameters were as follows: sheath gas 35, auxiliary gas 10 (both arbitrary units), spray voltage 2.4 kV, capillary temperature 275 °C, capillary voltage 67.5 V, tube lens voltage 120 V, skimmer voltage 24 V and source temperature 350 °C. Mass spectra were recorded at an ultra-high resolution (100,000). Instrument control, data acquisition and processing were performed using the associated Thermo Scientific software package (Xcalibur v.2.2 and Exactive v1.1).

[3] = Solubility, shake-flask method; assay type: physicochemical; conditions: thermodynamic from solid
Experimental: Standardized in vitro ADME experiments were performed by Eurofins Cerep (Poitiers, France). Solubility assays were performed in PBS at pH 7.4, but also in simulated gastric fluid (SGF) and intestinal fluid (SIF), through the classical shake-flask method according to Lipinski et al. using HPLC-UV/VIS technology. Results were expressed in µM.

[4] = Bidirectional permeability in Caco-2 (pH 6.5/7.4); assay type: in vitro ADME, human; conditions: human; for Papp A→B at 10 µM: Caco-2, pH 6.5, Caco-2, 10 µM, read-out: Permeability A/B pH6.5/7.4; for efflux ratio at 10 µM: Caco-2, pH 6.5, Papp(B-A)/Papp(A-B), pH 6.5/7.4, read-out: e-ratio (efflux ratio); for Papp B→A at 10 µM: pH 6.5, Caco-2, 10 µM, read-out: Permeability B/A pH6.5/7.4
Experimental: (§2) The compound was classically evaluated at 10 µM for all the ADME analyses. Bidirectional permeability (apical A to basolateral B pH 6.5/7.4 and basolateral B to apical A pH 7.4/6.5) was assessed in the epithelial colorectal adenocarcinoma cell line (Caco-2 cell line). Results were expressed as × 10^−6cm/s (Papp) and as % recovery. Efflux ratio, i.e., Papp(B-A)/Papp(A-B), was calculated. Plasma protein binding was analyzed by HPLC-MS/MS after 4-h incubation at 37 °C, as described by Banker et al.. Concentration was evaluated by LC/MS-MS. CYP inhibition was performed in human liver microsomes as described in [61]. Analysis of the respective metabolites. was performed by HPLC-MS/MS. Transporter inhibition analysis was also performed in overexpressing cell lines. Respective metabolites for each specific transporter substrate were analyzed by fluorometry or scintillation counting and % inhibition of control values were calculated. P-glycoprotein transporter substrate assessment was performed by bidirectional permeability analysis (apical A to basolateral B pH 7.4/7.4 and basolateral B to apical A pH 7.4/7.4) in the Caco-2 cell line with and without verapamil, as described in [59]. Results were expressed as ×10^−6 cm/s (Papp) and as % recovery. The efflux ratio, i.e., Papp(B-A)/Papp(A-B), was calculated. CYP450 induction characterization was performed on human hepatocytes. The mRNA levels of 7 different CYPs were analyzed by qPCR, as described in [72]. The compound was evaluated at 1, 10 and 100 µM. Fold-induction values were determined and compared to cut-off values, as defined for each CYP isozyme in each hepatocyte lot.

Plasma protein binding = assay type: in vitro ADME; conditions: 4-h incubation at 37 °C, read-out: PPB (converted)
Experimental: as §2, with “P-glycoprotein transporter substrate assessment was performed by bidirectional permeability analysis (apical A to basolateral B pH 7.4/7.4 and basolateral B to apical A pH 7.4/7.4) in the Caco-2 cell line with and without verapamil, as described in [59].” left out, “CYP450 induction characterization was performed on human hepatocytes.” left out

CYP1A = molecular target: T1, CYP1A (Homo sapiens, UniProt P05177); assay: CYP inhibition in human liver microsomes; assay type: in vitro ADME; conditions: read-out: CYPs inhibition CYP1A
T1 construct: tissue Eurofins Cerep (CRO); host or cells: human liver microsomes
T1 sequence (P05177 2-516 limits assumed): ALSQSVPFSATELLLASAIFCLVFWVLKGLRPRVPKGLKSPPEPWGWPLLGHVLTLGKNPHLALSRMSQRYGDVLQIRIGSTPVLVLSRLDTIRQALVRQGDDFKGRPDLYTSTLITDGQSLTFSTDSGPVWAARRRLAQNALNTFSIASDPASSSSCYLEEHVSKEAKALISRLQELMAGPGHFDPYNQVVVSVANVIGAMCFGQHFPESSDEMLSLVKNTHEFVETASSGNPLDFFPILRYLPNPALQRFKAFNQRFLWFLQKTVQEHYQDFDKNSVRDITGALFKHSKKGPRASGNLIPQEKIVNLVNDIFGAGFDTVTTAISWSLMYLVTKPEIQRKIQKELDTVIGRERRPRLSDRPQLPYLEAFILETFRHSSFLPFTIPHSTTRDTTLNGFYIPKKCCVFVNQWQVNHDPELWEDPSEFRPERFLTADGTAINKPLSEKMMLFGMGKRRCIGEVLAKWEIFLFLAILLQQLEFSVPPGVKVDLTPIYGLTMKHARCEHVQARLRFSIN
Experimental: as §2

CYP2B6 = molecular target: T2, CYP2B6 (Homo sapiens, UniProt P20813); assay: CYP inhibition in human liver microsomes; assay type: in vitro ADME; conditions: read-out: CYPs inhibition CYP2B6
T2 construct: tissue Eurofins Cerep (CRO); host or cells: human liver microsomes
T2 sequence (P20813 whole entry): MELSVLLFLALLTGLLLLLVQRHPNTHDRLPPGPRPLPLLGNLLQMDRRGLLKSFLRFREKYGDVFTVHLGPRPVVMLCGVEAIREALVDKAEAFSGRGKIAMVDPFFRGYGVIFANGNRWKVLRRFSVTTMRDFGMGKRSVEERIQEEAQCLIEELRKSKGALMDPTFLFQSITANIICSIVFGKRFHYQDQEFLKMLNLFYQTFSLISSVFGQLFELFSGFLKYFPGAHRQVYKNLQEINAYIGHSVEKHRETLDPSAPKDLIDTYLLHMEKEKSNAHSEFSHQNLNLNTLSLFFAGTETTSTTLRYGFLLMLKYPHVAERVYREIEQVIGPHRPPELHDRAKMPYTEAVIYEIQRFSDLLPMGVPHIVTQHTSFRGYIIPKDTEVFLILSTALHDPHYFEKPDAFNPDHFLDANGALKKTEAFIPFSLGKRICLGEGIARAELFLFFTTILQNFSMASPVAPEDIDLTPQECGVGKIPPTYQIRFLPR
Experimental: as §2

CYP2C19 = molecular target: T3, CYP2C19 (Homo sapiens, UniProt P33261); assay: CYP inhibition in human liver microsomes; assay type: in vitro ADME; conditions: read-out: CYPs inhibition CYP2C19
T3 construct: tissue Eurofins Cerep (CRO); host or cells: human liver microsomes
T3 sequence (P33261 whole entry): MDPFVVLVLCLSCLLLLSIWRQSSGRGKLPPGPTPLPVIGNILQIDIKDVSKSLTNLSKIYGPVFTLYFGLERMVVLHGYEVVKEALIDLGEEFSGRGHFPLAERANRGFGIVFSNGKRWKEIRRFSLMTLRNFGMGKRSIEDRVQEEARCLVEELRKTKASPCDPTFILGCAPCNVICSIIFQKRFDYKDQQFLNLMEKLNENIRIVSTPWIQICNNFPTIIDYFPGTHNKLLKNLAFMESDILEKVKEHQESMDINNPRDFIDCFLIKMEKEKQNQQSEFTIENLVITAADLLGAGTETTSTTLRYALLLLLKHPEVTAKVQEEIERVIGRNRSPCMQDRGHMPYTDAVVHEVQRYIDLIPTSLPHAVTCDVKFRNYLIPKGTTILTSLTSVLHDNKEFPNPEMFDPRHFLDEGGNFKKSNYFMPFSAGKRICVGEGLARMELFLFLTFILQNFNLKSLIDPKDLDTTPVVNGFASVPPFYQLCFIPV
Experimental: as §2

CYP2C8 = molecular target: T4, CYP2C8 (Homo sapiens, UniProt P10632); assay: CYP inhibition in human liver microsomes; assay type: in vitro ADME; conditions: read-out: CYPs inhibition CYP2C8
T4 construct: tissue Eurofins Cerep (CRO); host or cells: human liver microsomes
T4 sequence (P10632 whole entry): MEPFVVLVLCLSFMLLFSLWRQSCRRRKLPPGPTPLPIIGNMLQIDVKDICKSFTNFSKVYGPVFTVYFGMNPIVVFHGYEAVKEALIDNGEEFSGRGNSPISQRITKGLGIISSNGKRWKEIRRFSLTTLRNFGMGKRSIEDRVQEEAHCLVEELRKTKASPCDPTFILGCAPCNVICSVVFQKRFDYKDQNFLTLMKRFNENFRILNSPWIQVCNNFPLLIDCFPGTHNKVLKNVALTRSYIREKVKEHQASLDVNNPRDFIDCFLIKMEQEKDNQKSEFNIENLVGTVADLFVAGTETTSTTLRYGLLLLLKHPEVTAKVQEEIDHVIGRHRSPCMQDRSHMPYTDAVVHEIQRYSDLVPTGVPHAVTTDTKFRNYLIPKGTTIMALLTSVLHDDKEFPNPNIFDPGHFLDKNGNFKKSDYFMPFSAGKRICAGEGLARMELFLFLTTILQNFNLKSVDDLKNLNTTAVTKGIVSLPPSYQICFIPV
Experimental: as §2

CYP2C9 = molecular target: T5, CYP2C9 (Homo sapiens, UniProt P11712); assay: CYP inhibition in human liver microsomes; assay type: in vitro ADME; conditions: read-out: CYPs inhibition CYP2C9
T5 construct: tissue Eurofins Cerep (CRO); host or cells: human liver microsomes
T5 sequence (P11712 whole entry): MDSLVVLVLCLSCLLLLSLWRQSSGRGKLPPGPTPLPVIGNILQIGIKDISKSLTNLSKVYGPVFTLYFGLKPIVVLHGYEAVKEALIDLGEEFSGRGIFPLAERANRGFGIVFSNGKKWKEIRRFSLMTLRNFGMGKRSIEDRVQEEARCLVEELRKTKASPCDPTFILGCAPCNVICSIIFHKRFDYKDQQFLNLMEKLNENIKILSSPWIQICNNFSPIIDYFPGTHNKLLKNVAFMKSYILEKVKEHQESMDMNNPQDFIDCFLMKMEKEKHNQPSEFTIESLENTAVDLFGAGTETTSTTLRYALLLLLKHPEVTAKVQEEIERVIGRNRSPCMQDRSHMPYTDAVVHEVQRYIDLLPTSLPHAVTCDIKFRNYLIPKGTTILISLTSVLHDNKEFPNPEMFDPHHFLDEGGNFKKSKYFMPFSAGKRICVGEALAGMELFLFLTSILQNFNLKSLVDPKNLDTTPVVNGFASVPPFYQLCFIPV
Experimental: as §2

CYP2D6 = molecular target: T6, CYP2D6 (Homo sapiens, UniProt P10635); assay: CYP inhibition in human liver microsomes; assay type: in vitro ADME; conditions: read-out: CYPs inhibition CYP2D6
T6 construct: tissue Eurofins Cerep (CRO); host or cells: human liver microsomes
T6 sequence (P10635 whole entry): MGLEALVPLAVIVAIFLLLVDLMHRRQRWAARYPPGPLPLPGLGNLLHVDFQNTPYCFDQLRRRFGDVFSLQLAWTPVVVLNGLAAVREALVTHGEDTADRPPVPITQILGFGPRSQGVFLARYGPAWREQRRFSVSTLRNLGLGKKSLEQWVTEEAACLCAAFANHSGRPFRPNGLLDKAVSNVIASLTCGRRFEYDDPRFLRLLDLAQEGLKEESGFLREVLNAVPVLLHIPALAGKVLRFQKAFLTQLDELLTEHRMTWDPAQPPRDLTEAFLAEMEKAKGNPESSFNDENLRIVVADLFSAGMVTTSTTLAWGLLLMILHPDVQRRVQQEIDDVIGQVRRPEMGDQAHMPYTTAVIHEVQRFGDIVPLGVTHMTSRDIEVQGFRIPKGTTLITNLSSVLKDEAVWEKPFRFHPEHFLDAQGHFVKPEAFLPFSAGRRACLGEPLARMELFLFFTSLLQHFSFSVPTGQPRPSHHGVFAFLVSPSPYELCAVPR
Experimental: as §2

CYP3A = assay: CYP inhibition in human liver microsomes; assay type: in vitro ADME; conditions: read-out: CYPs inhibition CYP3A
Experimental: as §2

[5] = PBS pH 7.4, pH 7.4, aqueous buffer, read-out: Solubility PBS pH7.4
[6] = simulated gastric fluid (SGF), simulated gastric fluid, read-out: Solubility SGF
[7] = simulated intestinal fluid (SIF), fassgf or other biorelevant, read-out: Solubility SIF

Q: For `CN(CCCNC(=O)c1ccc(Cl)cc1)Cc1ccccc1` [compound 7i], which “Compound Remaining (1 h, %)” value [1] is on record?
A: 54%

Q: And the half-life at 10 µM [1]?
A: > 1 h

Q: And the microsomal CLint at 10 µM [1]?
A: < 115 µL/min/mg

Q: And the “Compound Remaining (1 h, %)” value ([2]; 10 µM)?
A: 66%

Q: And the half-life at 10 µM [2]?
A: > 1 h

Q: And the microsomal CLint at 10 µM [2]?
A: < 115 µL/min/mg

Q: And the solubility [3, 5]?
A: 185 µM (≈ 58.6 µg/mL)

Q: And the solubility [3, 6]?
A: 193 µM (≈ 61.1 µg/mL)

Q: What about the solubility [3, 7] of the same compound?
A: 188 µM (≈ 59.6 µg/mL)

Q: And the Papp A→B at 10 µM [4]?
A: ≤ 20 ×10⁻⁶ cm/s

Q: What about the efflux ratio at 10 µM [4] of the same compound?
A: ~2

Q: What about the Papp B→A at 10 µM [4] of the same compound?
A: 66.1 ×10⁻⁶ cm/s

Q: What about the fraction unbound at 4 h, 10 µM (Plasma protein binding) of the same compound?
A: > 0.05

Q: And the inhibition at 10 µM (CYP1A)?
A: 2.1%

Q: What about the inhibition at 10 µM (CYP2B6) of the same compound?
A: -4.3%

Q: What about the inhibition at 10 µM (CYP2C19) of the same compound?
A: 36.5%

Q: And the inhibition at 10 µM (CYP2C8)?
A: -9.2%

Q: What about the inhibition at 10 µM (CYP2C9) of the same compound?
A: -7.2%

Q: And the inhibition at 10 µM (CYP2D6)?
A: 95.1%

Q: What about the inhibition at 10 µM (CYP3A) of the same compound?
A: 36.9%

Q: Which results are given for `O=C(NCCCNCc1ccccc1)c1ccc(Cl)cc1` [compound 7i-deMe]?
A: Compound Remaining (1 h, %) [1]: 80%; half-life at 10 µM [1]: > 3 h; microsomal CLint at 10 µM [1]: < 115 µL/min/mg; t1/2 ([2]; 10 µM): 10.0 h; Compound Remaining (1 h, %) ([2]; 10 µM): 83%; half-life at 10 µM [2]: > 9 h; microsomal CLint at 10 µM [2]: < 115 µL/min/mg; solubility [3, 5]: 187 µM (≈ 56.6 µg/mL); solubility [3, 6]: 197 µM (≈ 59.7 µg/mL); solubility [3, 7]: 196 µM (≈ 59.3 µg/mL); Papp A→B at 10 µM [4]: 31.1 ×10⁻⁶ cm/s; efflux ratio at 10 µM [4]: 1.7; Papp B→A at 10 µM [4]: 51.5 ×10⁻⁶ cm/s; fraction unbound at 4 h, 10 µM (Plasma protein binding): 0.19; inhibition at 10 µM (CYP1A): 9.4%; inhibition at 10 µM (CYP2B6): 15.9%; inhibition at 10 µM (CYP2C19): 18.4%; inhibition at 10 µM (CYP2C8): -7.2%; inhibition at 10 µM (CYP2C9): 5.9%; inhibition at 10 µM (CYP2D6): 91.6%; inhibition at 10 µM (CYP3A): 3.2%
